Data taken from USRE39300E1, “Inhibiting the development of tolerance to and/or dependence on an addictive substance” (Virginia Commonwealth University Medical College of Virginia, priority 1993, dated 2006).

Columns and labels:
Sprague-Dawley rats [1] = assay: Development of morphine tolerance with systemic treatment, tail-flick test; type: in vivo, rat; settings: for inhibition of the development of morphine tolerance: FIG. 6
rats [2] = assay: Health observations (death, grooming, weight loss) during the morphine tolerance experiment; settings: for overall toxicity: conclusion of Example 4; for rats that died due to drug administration: GM1 or dextrorphan treatment groups; for grooming and weight: ganglioside GM1 or dextrorphan treatment groups
rats [3] = assay: Development of morphine tolerance with intrathecal treatment, tail-flick test; type: in vivo, rat; settings: for analgesic effect of morphine (tail-flick latency) on day 8: 100 or 50 nmol intrathecal immediately before each morphine 10 μg; for dose relation of the prevention of morphine tolerance: intrathecal; for prevention of the development of morphine tolerance: intrathecal administration immediately before each once daily intrathecal morphine sulfate 10 μg, FIGS. 7-10
Procedure: Morphine sulfate 10 μg was delivered once daily through an intrathecal (spinal) canula implanted 5 days before the first morphine injection. Ganglioside GM1 or saline also was delivered intrathecally 30 minutes before each morphine injection.
Intrathecal ganglioside GM1 was given 30 min before each morphine administration. […] Vertical bars are standard errors. Maximal possible effects (MPE) were calculated by the formula % MPE=[(TL−BL)/(10−BL)]×100. TL: actual tail-flick latency; BL: baseline latency obtained before the first morphine injection; 10: cut-off time for radiant heat stimulation.
Calmodulin is an intracellular colactor necessary for the nitric oxide pathway that can be initiated upon NMDA receptor activation. […] Each data point in FIGS. 7-10 represents the mean of a group of rats (n=6) and standard errors are shown by vertical lines. The asterisks refer to statistical differences (α=0.05) between the saline group and each other group.

Sprague-Dawley rats [4] = assay: Naloxone-produced jumping (withdrawal symptom) in morphine-treated rats; type: in vivo, rat

C[C@]12N[C@H](Cc3ccccc31)c1ccccc12 [MK 801, 5-methyl-10,11-dihydro-SH-dibenzo[a,d]cyclohepten-5,10-imine] was tested, and the “inhibition of the development of morphine tolerance” value (Sprague-Dawley rats [1]; MK 801 0.3 mg/kg) was “inhibited the development of morphine tolerance”, the “rats that died before the completion of the experiment” value (rats [2]; 0.3 mg/kg, 3 out of 6) was 50% and the “grooming and weight of the remaining rats” value (rats [2]; MK 801 0.3 mg/kg) was “apparently poor grooming and weight loss”. For the same compound, the overall toxicity (rats [2]) was “severe cytotoxic effects”.
In the case of CN1CCN(CCCN2c3ccccc3Sc3ccc(C(F)(F)F)cc32)CC1 [TFP, trifluoperazine], the “analgesic effect of morphine (tail-flick latency) on day 8” value (rats [3]) is reported as “showed a reliable analgesic effect of morphine”, the “dose relation of the prevention of morphine tolerance” value (rats [3]) is reported as 100=50 nmol>25=12.5 nmol and the “prevention of the development of morphine tolerance” value (rats [3]) is reported as “effectively prevent the development of morphine tolerance”.
In the case of Cl.NCCCCCCNS(=O)(=O)c1cccc2c(Cl)cccc12 [W-7, N-(6-aminohexyl)-5-chloro-1-naphthalenesulfonamide hydrochloride], the “analgesic effect of morphine (tail-flick latency) on day 8” value (rats [3]) is reported as “showed a reliable analgesic effect of morphine”, the “dose relation of the prevention of morphine tolerance” value (rats [3]) is reported as 100=50 nmol>25=12.5 nmol and the “prevention of the development of morphine tolerance” value (rats [3]) is reported as “effectively prevent the development of morphine tolerance”.
For CN1CC[C@]23CCCC[C@H]2[C@H]1Cc1ccc(O)cc13 [dextrorphan, (+)-3-hydroxy-N-methylmorphinan], the “analgesic effect of the morphine on coadministration” value (Sprague-Dawley rats [1]; coadministration of dextrorphan with morphine) was “remains substantially unaffected”, the “prevention of the development of morphine tolerance (tail-flick latency)” value (Sprague-Dawley rats [1]; dextrorphan 1.56, 3.13, 6.25, 12.5 mg/kg i.p. 30 min prior to each morphine 10 mg/kg s.c. twice daily, vs saline control, FIG. 1) was “potently prevented the development of morphine tolerance” and the “incidence of jumping after naloxone 2 mg/kg s.c.” value (Sprague-Dawley rats [4]; dextrorphan 3.13 and 6.25 mg/kg, morphine 10 mg/kg twice daily for 9 days, vs MOR+SAL, FIG. 2) was “significantly reduced the incidence of jumping”. The “rats that died due to drug administration” value (rats [2]) was “None”, the overall toxicity (rats [2]) was “nontoxic” and the grooming and weight (rats [2]) was “continued to appear well groomed and did not show weight loss”.
For CN1CC[C@]23c4c5ccc(O)c4O[C@H]2[C@@H](O)C=C[C@H]3[C@H]1C5.O=S(=O)(O)O [morphine, morphine sulfate], the “post-drug tail-flick latency scores” value (Sprague-Dawley rats [1]; measured 1 hour after drug administration, first 5 days of daily administration, morphine 10 mg/kg s.c. twice daily, baseline 4-5 seconds) was ~10 s, the “response to morphine (tolerance), control group” value (Sprague-Dawley rats [1]; morphine 10 mg/kg s.c. twice daily + saline, at 7 and 9 days) was “marked reduction in response to morphine” and the “response to morphine (tolerance), control group” value (rats [3]; once daily intrathecal morphine 10 μg + saline, Day 8, each tested time point) was “marked reduction in response to morphine”. The “tolerance to the analgesic effect (tail-flick latencies vs baseline, day 1)” value (rats [3]; once daily intrathecal morphine sulfate 10 μg and saline for 7 consecutive days) was “developed tolerance to the analgesic effect or morphine”.
With ganglioside GM1 the “inhibition of the development of morphine tolerance” value (Sprague-Dawley rats [1]; ganglioside GM1 60 mg/kg) was “inhibited the development of morphine tolerance to the degree equivalent to that induced by 0.3 mg/kg MK 801”, the “tail flick latency versus saline-treated rats” value (Sprague-Dawley rats [1]; ganglioside GM1 10, 30, 60 mg/kg systemic, 1 hour before each morphine, days 5, 7, 9 and 10 of repeated morphine, FIG. 3) was “remained significantly longer than that of saline-treated rats” and the “comparison of doses for prevention of morphine tolerance” value (Sprague-Dawley rats [1]; ganglioside GM1 systemic, 10, 30, 60 mg/kg, FIG. 3) was 30 and 60 mg/kg were more effective at days 9 and 10 than 10 mg/kg. The “number of jumps after naloxone 2 mg/kg s.c.” value (Sprague-Dawley rats [4]; GM1 10, 30 and 60 mg/kg systemic, morphine 10 mg/kg twice daily for 9 days, vs MOR+SAL, FIG. 4) was “effective”, the “most effective dose tested against naloxone-produced jumping” value (Sprague-Dawley rats [4]; GM1 systemic, doses 10, 30, 60 mg/kg) was 60 mg/kg and the “prevention of morphine tolerance (maximal possible effects, % MPE)” value (rats [3]; intrathecal ganglioside GM1 30 min before each once daily intrathecal morphine 10 μg, Day 8, 15-240 minutes after morphine, vs saline, FIG. 5) was “effectively prevented the development of morphine tolerance”. For the same compound, the “order of doses, maximal possible analgesia effects of morphine” value (rats [3]; intrathecal ganglioside GM1, Day 8) was 160 nmol>80=40 nmol, the “rats that died due to drug administration” value (rats [2]) was “None” and the overall toxicity (rats [2]) was “nontoxic”. The grooming and weight (rats [2]) was “continued to appear well groomed and did not show weight loss”.
